From patent US20080070859A1, “Compounds resistant to metabolic deactivation and methods of use” (priority 2002, published 2008)

Key:
HL-60 = assay: MTT assay of cell viability, HL-60; assay type: cell-based; conditions: 5 days at 37 C
Method: (§1) The in vitro cytotoxicities of thioaminal prodrugs of Cordycepin were compared to the parent drug Cordycepin using a standard MTT assay of cell viability (Hansen et al. (1989) J. Immunol. Meth. 119:203-10). Leukemia cell lines growing in the exponential phase (MOLT, […], and CEM/Cl) were plated at a final concentration of 1×10^5 cells/ml and exposed to serial dilutions of the Cordycepin prodrugs. In a subset of the experiments (denoted by “+”), the cells were preincubated with 1 μM of the ADA inhibitor 2′-deoxycoformycin for 30 minutes prior to addition of prodrug. Cell viability was determined after incubation for 5 days at 37 C by addition of 3-(4,5-dimethylthizaol-2-yl)-2,5-diplenyl-tetrazolium dye. IC50 was defined as the drug concentration that reduced cell viability 50% in comparison with the appropriate control.

MOLT = assay: MTT assay of cell viability, MOLT; assay type: cell-based; conditions: 5 days at 37 C
Method: as §1

CEM/Cl = assay: MTT assay of cell viability, CEM/Cl; assay type: cell-based; conditions: 5 days at 37 C
Method: as §1

[1] = HPLC stability analysis: hydrolysis of the prodrug to Cordycepin in phosphate buffer; assay type: physicochemical; conditions: 0.63 mM in 30 mM phosphate buffer (pH 7.3) containing 5% DMSO, 37 C; for half-life at 0.63 mM: read-out: t½ (time point at which half of the Cordycepin prodrug was hydrolysed to Cordycepin) (converted)
Method: To analyze the half-life of thioaminal prodrugs, HPLC stability analysis was performed on the following Cordycepin prodrugs. Solutions (0.63 mM) of each of the following compounds was prepared in 30 mM phosphate buffer (pH 7.3) containing 5% DMSO and incubated at 37 C.

[2] = system: Leukemia cell lines (MOLT, HL-69, and CEM/Cl); assay: MTT assay of cell viability, overall comparison with Cordycepin; assay type: cell-based; conditions: both in the presence and absence of ADA inhibitor
Method: as §1

[3] = system: Leukemia cell lines (MOLT, and CEM/Cl); assay: as above; assay type: cell-based; conditions: absence vs presence of ADA inhibitor 2′-deoxycoformycin
Method: as §1

[4] = HL-60, + (preincubated with 1 μM 2′-deoxycoformycin for 30 minutes)
[5] = Homo sapiens, 120 h, HL-60, − (no ADA inhibitor)
[6] = + (preincubated with 1 μM 2′-deoxycoformycin for 30 minutes)

## Nc1ncnc2c1ncn2[C@@H]1O[C@H](CO)C[C@H]1O [Cordycepin, 3′-deoxyadenosine, reference compound]
HL-60; [4]
  IC50: 9 µM
HL-60; [5]
  IC50: 42 µM
MOLT; 120 h, − (no ADA inhibitor)
  IC50: 80 µM
MOLT; [6]
  IC50: 21 µM
CEM/Cl; 120 h, − (no ADA inhibitor)
  IC50: 27 µM
CEM/Cl; [6]
  IC50: 2 µM

## OCCSCNc1ncnc2c1ncn2[C@@H]1O[C@H](CO)C[C@H]1O [2b, 6-N-(2-hydroxyethanethio)methyl-Cordycepin]
[1]
  t½ (time point at which half of the Cordycepin prodrug was hydrolysed to Cordycepin): >72 h

## CCSCNc1ncnc2c1ncn2[C@@H]1O[C@H](CO)C[C@H]1O [1b, 6-N-(Ethanethio)methyl-Cordycepin]
[1]
  t½ (time point at which half of the Cordycepin prodrug was hydrolysed to Cordycepin): >72 h

## Cc1ccc(SCNc2ncnc3c2ncn3[C@@H]2O[C@H](CO)C[C@H]2O)cc1 [4b]
[2]
  cytotoxic potency compared to Cordycepin: more potent cytotoxic agents than Cordycepin
HL-60; [4]
  IC50: 17 µM
HL-60; [5]
  IC50: 50 µM
MOLT; 120 h, − (no ADA inhibitor)
  IC50: 35 µM
MOLT; [6]
  IC50: 30 µM
CEM/Cl; 120 h, − (no ADA inhibitor)
  IC50: 24 µM
CEM/Cl; [6]
  IC50: 5 µM

## OC[C@@H]1C[C@@H](O)[C@H](n2cnc3c(NCSc4ccccc4)ncnc32)O1 [3b, 6-N-(phenylthiol)methyl-Cordycepin]
[2]
  cytotoxic potency compared to Cordycepin: more potent cytotoxic agents than Cordycepin
[3]
  attenuation of activity in the absence of ADA inhibitor: not significantly attenuated
[1]
  half-life at 0.63 mM: 15 h
HL-60; [4]
  IC50: 7 µM
HL-60; [5]
  IC50: 24 µM
MOLT; 120 h, − (no ADA inhibitor)
  IC50: 18 µM
MOLT; [6]
  IC50: 16 µM
CEM/Cl; 120 h, − (no ADA inhibitor)
  IC50: 5.5 µM
CEM/Cl; [6]
  IC50: 2 µM

## O=[N+]([O-])c1ccc(CSCNc2ncnc3c2ncn3[C@@H]2O[C@H](CO)C[C@H]2O)cc1 [7b, 6-N-(4-nitrobenzylthio)methyl-Cordycepin]
[1]
  t½ (time point at which half of the Cordycepin prodrug was hydrolysed to Cordycepin): 1 h

## COc1ccc(SCNc2ncnc3c2ncn3[C@@H]2O[C@H](CO)C[C@H]2O)cc1 [5b, 6-N-(4-methoxybenzothio)methyl-Cordycepin]
[2]
  cytotoxic potency compared to Cordycepin: more potent cytotoxic agents than Cordycepin
[1]
  half-life at 0.63 mM: 17 h
CEM/Cl; 120 h, − (no ADA inhibitor)
  IC50: 15 µM
CEM/Cl; [6]
  IC50: 3 µM

## 6-N-(4-N-acetylbenzylthio)methyl-Cordycepin [8b]
CEM/Cl; [6]
  IC50: 3 µM
CEM/Cl; − (no ADA inhibitor)
  IC50: 15 µM
